Data from patent publication US20110178072A1, “STEREOSPECIFICITY OF METHYLSULFINYL REDUCTION” (priority 2008, published 2011).

What was measured:
[1] = tested on: selenoproteins; assay: 75Se metabolic labeling of SK-Hep1 cells grown on Met and Met sulfoxide media; type: cell-based, human; settings: 0.1 mM of each amino acid
Procedure: ^75 Se Metabolic labeling—SK-Hep1 cells were plated in 6-well plates at 7.5×10^4 cells/well in 1.5 mL of regular DMEM medium. After 24 hours, cells were washed with PBS and the medium was changed to modified DMEM media containing Met, Met-SO, Met-RO, or Met-RSO (0.1 mM of each amino acid). 0.01 mCi of freshly neutralized [^75Se]selenious acid (specific activity 1,000 Ci/mmol, University of Missouri Research Reactor) was added in each well at 48 hours after changing the medium and cells were incubated at 37° C. for 24 hours in 5% CO2 atmosphere, followed by harvesting the cells. Cell extracts (30 μg of total protein) were electrophoresed on 10% Bis-Tris gels and transferred onto PVDF membranes (Invitrogen). The ^75Se radioactivity pattern was visualized by using a PhosphorImager (GE Health Care).

[2] = tested on: SK-Hep1 cells; assay: Growth and morphology of SK-Hep1 cells in Met-free DMEM supplemented with Met or Met sulfoxides (MTS proliferation assay, microscopy); type: cell-based, human; settings: Met-free DMEM supplemented with 0.1 mM of the compound
Procedure: Cell culture—SK-Hep1 (ATCC: HTB-52™) and fRMsr-transfected SK-Hep1 cells were cultured in DMEM or Met-free DMEM (GIBCO) media, supplemented with 0.1 mM Met, 0.1 mM Met-RO, 0.1 mM Met-SO, or 0.1 mM Met-RSO. […] Thus, 0.1 mM Met sulfoxides were used in the experiments described below. Cell culture experiments, with the exception of a proliferation assay, were carried out in 6-well plates, and cells were maintained at 37° C. in a 5% CO2 atmosphere. Proliferation Assay—Cell growth was quantified using colorimetric MTS assay (Promega). Cells in regular DMEM medium were plated in 96-well plates at 5×10^3 cells/well, washed with PBS, and specialized DMEM media were added that contained Met, Met-SO, Met-RO, or Met-RSO 24 hours after plating. To assay for cell proliferation, a tetrazolium compound [3-(4,5-dimethylthiazol-2-yl)-5-(3-carboxymethoxyphenyl)-2-(4-sulfophenyl)-2H-tetrazolium, inner salt; MTS] and an electron coupling reagent (phenazine methosulfate; PMS) were mixed according to the manufacturer's protocol and then 20 μL of the mixture were added to 100 μL of phenol red-excluded media that further replaced cell culture media. After 90 minutes of incubation at 37° C. in the atmosphere of 5% CO2, cell proliferation was measured at indicated time periods from 0 to 96 hours at 450 nm in a plate reader. Direct counting of viable cells using 0.2% trypan blue was done in 6-well plates. Microscopy—A Nikon TE-300 Widefield Microscope was used to prepare images of SK-Hep1 cells grown on different Met and Met sulfoxide media. Microscopy analyses were carried out in the University of Nebraska Microscopy Core Facility.

[3] = target: T1, yeast fRMsr (Saccharomyces cerevisiae, UniProt P36088); assay: Activity assay of purified recombinant yeast fRMsr towards free Met sulfoxides (HPLC, OPA derivatization); type: biochemical, S. cerevisiae; settings: recombinant His-tagged yeast fRMsr
T1 construct: His-tag (C); made in house; host or cells: E. coli BL21 (DE3), pET21b
T1 sequence (P36088 1-180): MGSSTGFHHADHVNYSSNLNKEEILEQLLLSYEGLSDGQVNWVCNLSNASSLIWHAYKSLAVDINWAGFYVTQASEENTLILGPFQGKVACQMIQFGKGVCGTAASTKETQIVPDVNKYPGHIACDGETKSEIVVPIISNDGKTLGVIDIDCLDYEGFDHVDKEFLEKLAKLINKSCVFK
Source text: Cloning and expression of yeast fRMsr—Characterization of S. cerevisiae fRMsr (YKL069W) is described in Le, D. T., et al. (2009) Functional analysis of free methionine-R-sulfoxide reductase from Saccharomyces cerevisiae. J Biol Chem., 284(7), 4354-4364. Briefly, a yeast fRMsr cDNA, which encodes a protein homologous to fRMsr from E. coli, was amplified from S. cerevisiae genomic DNA and subcloned into pET21b vector (Novagen) using primers 5′-AAACATATGATGGGCTCATCAACCGGGTTTC-3′ (sense; SEQ ID NO:1) and 5′-AAGCGGCCGCGACACATGATTTATTAATTAATTTAGCAAG-3′ (antisense; SEQ ID NO:2). After transformation into BL21 (DE3) E. coli, the subcloned sequence was verified by DNA sequencing. Cells with the plasmid in 500 mL LB medium containing 100 μg/mL ampicillin were grown until OD600 reached 0.6-0.8, followed by addition of IPTG to 0.3 mM. Protein expression was at 30° C. for 4 hours, followed by harvesting cells by centrifugation at 4,000 rpm for 5 minutes. Cells were washed with PBS and stored at −70° C. until use.
To purify the protein, a cell pellet was dissolved in resuspension buffer (Tris-HCl, pH 7.5, 15 mM imidazole, 300 mM NaCl), and PMSF was added to a final concentration of 0.5 mM. After sonication, the supernatant was collected by centrifugation at 8,000 rpm for 30 minutes. The supernatant was loaded onto a cobalt Talon resin (Clontech) pre-equilibrated with resuspension buffer. Following washing with the same buffer, the protein was eluted with elution buffer (Tris-HCl, pH 7.5, 300 mM imidazole, 300 mM NaCl). Fractions containing yeast fRMsr were pooled together and dialyzed overnight against PBS in a dialysis cassette (Pierce).
Activity assays of fRMsr—Reaction mixture (40 μL) included 50 mM DTT, 1 mM substrate (Met-RO or Met-SO), and purified enzyme or cell lysate prepared by treatment with CelLytic™M cell lysis reagent (Sigma). 20 μL of the reaction mixture was mixed with 2 μL of TCA and subjected to OPA derivatization as described above and then injected onto the column to measure endogenous Met level in the samples. An additional 20 μL from the same original reaction mixture were incubated at 37° C. for 30 minutes and then subjected to OPA derivatization by the same procedure using TCA. After derivatization of the sample (2-5 μL) by adding OPA solution to 100 μL as a final volume, 50 μL of the mixture were subjected to an HPLC separation as described above.

Activity of recombinant yeast fRMsr protein towards the substrate [3]	SMILES	Selenoprotein patterns (75Se labeling) [1]	Growth of SK-Hep1 cells [2]
–	C[S+]([O-])CC[C@H](N)C(=O)O (stereo partly drawn) [Met-RSO, L-Met-R,S-sulfoxide]	No difference was observed	could also proliferate
inactive	CN(C)c1ccc(/N=N/c2ccc(S(=O)(=O)N[C@@H](CC[S@@+](C)[O-])C(=O)O)cc2)cc1 [dabsyl-Met-RO]	–	–
inactive	CN(C)c1ccc(N=Nc2ccc(S(=O)(=O)N[C@@H](CC[S@+](C)[O-])C(=O)O)cc2)cc1 [dabsyl-Met-SO]	–	–
